Values joined by “and” are separate entries in the source; they are usually repeats but may differ in a detail not shown here. Identical values can stand only once.
Assay: Whole-blood PK study (IV, IP and PO) in male CD-1 mice
Format: in vivo, mouse
Procedure: Nine male CD-1 mice (25–35 g) were obtained from Hilltop Labs. Duration of acclimation was at least two days. Animals were randomly assigned to the three dose groups (IV, PO, intraperitoneal (IP), N = 3 per group), healthy at the start of the trial, housed one per cage (conventional type with wood chip bedding material), identified by a cage label and maintained in a well-controlled temperature (20–24 C) and humidity (30%-70%) environment with 12 h light/dark cycles. Animals intended for IV dosing were fitted with a jugular vein cannula (JVC, procedure see rat plasma PK study above). The study was not blinded. Food was withheld from the animals for a minimum of 12 h prior to test article administration until 4 h post-dose. Water was offered ad libitum.
C16 was dosed in cassette together with two undisclosed compounds of similar chemical structure. The dose of each test article was 1 mg/kg (IV, JVC, 0.5 mg/mL) or 10 mg/kg (IP and PO gavage, 2 mg/mL). Two respective dosing solutions were prepared (protocol see above) containing 0.5 and 2 mg/mL of C16 (and equal concentrations of the other two test articles) in 20% DMSO / 10% (DMSO / Cremophor EL 1:1) / 70% H2O. Formulations were prepared one day prior to dosing and stored at 4 °C.
Blood samples were taken pre-dose and 5 (except for PO administration), 15, 30 min, 1, 2, 4, and 8 h after dosing. The samples were collected via the tail vein or by cardiac puncture (8 h time point). Blood (25 μL) was collected and pipetted into a tube with 25 μL heparinized water (1 μL of sodium heparin (1000 unit/ml) + 24 μL water) within 30 seconds of collection. The sample was pipetted up and down five times, immediately frozen on dry ice and stored at -60°C to -80°C until analyzed. No necropsy was performed.
Pharmacokinetic parameters were estimated by a non-compartmental model using WinNonlin (v5.2.1 or higher) software. The maximum plasma/blood concentrations (c0) after IV dosing were estimated by extrapolation of the first two time points back to t = 0. The maximum blood concentration (cmax) and the time to reach maximum blood drug concentration (tmax) after PO dosing were derived from the data. The area under the time-concentration curve (AUC) was calculated using the linear trapezoidal rule with calculation to the last quantifiable data point, and with extrapolation to infinity if applicable. Plasma/blood half-life (t1/2) was calculated from 0.693/slope of the terminal elimination phase. Mean residence time (MRT) was calculated by dividing the area under the moment curve (AUMC) by the AUC. Clearance (CL) was calculated from dose/AUC. Steady-state volume of distribution (Vss) was calculated from CL*MRT. Bioavailability was determined by dividing the individual dose-normalized PO AUC values by the respective average dose-normalized intravenous (IV) AUC value. Samples that were below the limit of quantification were not used in the calculation of averages, and were treated as zero for pharmacokinetic data analysis. […]
Sprague-Dawley rats at 10 mg/kg (in 100% DMSO). […]
c Bioavailability determined by dividing the individual dose normalized oral AUC last by the average dose normalized intravenous AUC last value. […]
The dosing solution was prepared as a cassette to contain all three test articles in the same solutions using a vehicle
consisting of 20% DMSO/10% (DMSO/Cremophor EL 1:1)/70% Milli-Q water.
Individual blood concentrations and pharmacokinetic parameters are shown in Table H through Table J. All data are
expressed as ng/mL of the free drug. Samples that were below the limit of quantification were not used in the
calculation of averages. Concentration versus time data are plotted in Fig D through Fig F.
Table H. Individual blood concentrations (ng/mL) and PK parameters for C16 after IV administration in male CD-1 mice at 1 mg/kg.
t (h) 0 (pre-dose) BLOQ BLOQ BLOQ
(1 picture or pasted object on this page, not shown here)

[1] = mouse blood, IP 10 mg/kg, individual animals 4-6, 10 mg/kg
[2] = mouse blood, IV 1 mg/kg, individual animals 1-3, 1 mg/kg
[3] = mouse blood, PO 10 mg/kg, individual animals 7-9, 10 mg/kg
[4] = whole blood, male CD-1 mouse, IP 10 mg/kg, average

COc1cc(C(=O)/C=C/c2ccc(F)cc2)cc(OC)c1OC [C16, 4-fluoro-3’,4’,5’-trimethoxychalcone]
Tmax (male, CD-1, whole blood, mouse blood, PO 10 mg/kg, individual animals 7-9): 15 min
AUClast [1]: 127 ng·h/mL and 101 ng·h/mL
AUC∞ [1]: 134 ng·h/mL and 106 ng·h/mL
Bioavailability [1]: 63.7% and 50.6%
Dose-normalized AUClast [1]: 9.92 kg·ng·h/mL/mg and 12.7 kg·ng·h/mL/mg and 10.1 kg·ng·h/mL/mg
Dose-normalized AUC∞ [1]: 10.1 kg·ng·h/mL/mg and 13.4 kg·ng·h/mL/mg and 10.6 kg·ng·h/mL/mg
MRTlast [1]: 57 min and 55 min
cmax [1]: 106 ng/mL and 125 ng/mL
t1/2 [1]: 51.7 min and 54.1 min
AUClast [2]: 22.2 ng·h/mL and 17.5 ng·h/mL
AUC∞ [2]: 24.7 ng·h/mL and 19.6 ng·h/mL
CL [2]: 673 mL/min/kg and 850 mL/min/kg
MRTlast [2]: 23.9 min and 28.6 min
Vss [2]: 27.2 L/kg and 37.7 L/kg
c0 [2]: 75.8 ng/mL and 103 ng/mL and 49.1 ng/mL
t1/2 [2]: 46.8 min and 38.2 min
AUClast [3]: 15.1 ng·h/mL and 24.5 ng·h/mL
Bioavailability [3]: 7.56% and 12.3%
Dose-normalized AUClast [3]: 2.32 kg·ng·h/mL/mg and 1.51 kg·ng·h/mL/mg and 2.45 kg·ng·h/mL/mg
MRTlast [3]: 100 min and 103 min and 46 min
cmax [3]: 8.76 ng/mL and 17.8 ng/mL and 10.9 ng/mL
Adverse reactions (mouse, 1 mg/kg IV, 10 mg/kg IP or PO, cassette): No adverse reactions were observed
Individual blood concentration (mouse, IP 10 mg/kg, 0.083 h, animals 4-6, 10 mg/kg): 28.2 ng/mL and 68.6 ng/mL and 64.5 ng/mL
Individual blood concentration (mouse, IP 10 mg/kg, 0.25 h, animals 4-6, 10 mg/kg): 106 ng/mL and 125 ng/mL
Individual blood concentration (mouse, IP 10 mg/kg, 0.50 h, animals 4-6, 10 mg/kg): 94.4 ng/mL and 56.3 ng/mL
Individual blood concentration (mouse, IP 10 mg/kg, 1.0 h, animals 4-6, 10 mg/kg): 48.0 ng/mL and 32.1 ng/mL
Individual blood concentration (mouse, IP 10 mg/kg, 2.0 h, animals 4-6, 10 mg/kg): 13.3 ng/mL and 12.1 ng/mL
Individual blood concentration (mouse, IP 10 mg/kg, 4.0 h, animals 4-6, 10 mg/kg): 1.79 ng/mL and 5.29 ng/mL and 3.62 ng/mL
Individual blood concentration (mouse, IP 10 mg/kg, 8.0 h, animals 4-6): BLOQ (BLOQ: Below the limit of quantitation (1 ng/mL))
Individual blood concentration (mouse, IV 1 mg/kg, 0.083 h, animals 1-3, 1 mg/kg): 54.4 ng/mL and 33.4 ng/mL
Individual blood concentration (mouse, IV 1 mg/kg, 0.25 h, animals 1-3, 1 mg/kg): 15.2 ng/mL and 15.4 ng/mL
Individual blood concentration (mouse, IV 1 mg/kg, 0.50 h, animals 1-3, 1 mg/kg): 8.57 ng/mL and 10.9 ng/mL
Individual blood concentration (mouse, IV 1 mg/kg, 1.0 h, animals 1-3, 1 mg/kg): 4.93 ng/mL and 3.76 ng/mL
Individual blood concentration (mouse, IV 1 mg/kg, 2.0 h, animals 1-3, 1 mg/kg): 2.21 ng/mL and 2.30 ng/mL
Individual blood concentration (mouse, IV 1 mg/kg, 4.0 h, animals 1-3): BLOQ (BLOQ: Below the limit of quantitation (1 ng/mL))
Individual blood concentration (mouse, IV 1 mg/kg, 8.0 h, animals 1-3): BLOQ (BLOQ: Below the limit of quantitation (1 ng/mL))
Individual blood concentration (mouse, PO 10 mg/kg, 0.25 h, animals 7-9, 10 mg/kg): 8.76 ng/mL and 17.8 ng/mL and 10.9 ng/mL
Individual blood concentration (mouse, PO 10 mg/kg, 0.50 h, animals 7-9, 10 mg/kg): 7.95 ng/mL and 12.4 ng/mL and 5.89 ng/mL
Individual blood concentration (mouse, PO 10 mg/kg, 1.0 h, animals 7-9, 10 mg/kg): 7.01 ng/mL and 5.15 ng/mL and 3.45 ng/mL
Individual blood concentration (mouse, PO 10 mg/kg, 2.0 h, animals 7-9, 10 mg/kg): 6.19 ng/mL and 4.28 ng/mL and 10.5 ng/mL
Individual blood concentration (mouse, PO 10 mg/kg, 4.0 h, animals 7-9, 10 mg/kg): 3.44 ng/mL and BLOQ (BLOQ: Below the limit of quantitation (1 ng/mL)) and 1.26 ng/mL
Individual blood concentration (mouse, PO 10 mg/kg, 8.0 h, animals 7-9): BLOQ (BLOQ: Below the limit of quantitation (1 ng/mL))
Dose-normalized AUClast [4]: 10.9 kg·ng·h/mL/mg
Dose-normalized AUC∞ [4]: 11.4 kg·ng·h/mL/mg
Dose-normalized AUClast (whole blood, male CD-1 mouse, PO 10 mg/kg, average): 2.09 kg·ng·h/mL/mg

From article PMC5823406, “Vehicle development, pharmacokinetics and toxicity of the anti-invasive agent 4-fluoro-3’,4’,5’-trimethoxychalcone in rodents” (PLoS ONE, 2018)
